Results published in patent publication US20070142437A1, “CHEMICAL COMPOUNDS” (priority 2005, published 2007).

System: HUVEC cells
Test: Human Umbilical Vein Endothelial Cell (HUVEC) proliferation assay (BrdU incorporation)
Assay type: cell-based
Settings: growth stimulated with VEGF, 72 hrs, read-out: Inhibition of HUVEC proliferation IC50
Method: Human Umbilical Vein Endothelial Cell (HUVEC) Proliferation Assay (BrdU Incorporation) Materials
HUVEC cells and EGM-MV (Endothelial cell growth medium—microvascular) were purchased from Clonetics (San Diego, Calif.). VEGF and bFGF were purchased from R&D Systems (Minneapolis, Minn.). Anti-BrdU antibody was obtained from Chemicon International (Temecula, Calif.).
HUVECs were routinely maintained in EGM-MV medium and were used within passage 7. HUVECs were plated at a density of 2500 cells/well in M199 medium containing 5% FBS (Hyclone) in type I collagen coated plate (Becton Dickinson). The plate was incubated at 37° C. overnight. The medium was removed by aspiration, and test compounds were added to each well in a volume of 0.1 ml/well in serum-free M199 medium. Compound concentrations ranged from 1.5 nM to 30 micromolar. The plate was incubated for 30 min at 37° C. Another 0.1 ml of serum-free M199 medium containing BSA and VEGF (or bFGF) was added to give a final concentration of 0.1% BSA and 10 ng/ml VEGF (0.3 ng/ml bFGF). The plate was incubated at 37° C. for 72 hrs. BrdU was added to each well after the first 48 hrs to give a concentration of 10 micromolar. The colorimetric ELISA assay was performed according to manufacturer's (Roche Molecular Sciences) instructions, with detection by absorbance reading at 450 nm. Results were plotted as concentration of test compound vs. absorbance to give an IC50 value for inhibition of BrdU incorporation.

Question: With COc1ccc(S(N)(=O)=O)cc1Nc1ncc(-c2ccc(F)cc2)o1 [Example 89, 3-{[5-(4-fluorophenyl)-1,3-oxazol-2-yl]amino}-4-methoxybenzenesulfonamide] as the compound, how does the IC50 read?
Answer: < 1 µM

Question: With CCS(=O)(=O)c1ccc(OC)c(Nc2ncc(-c3cccc(F)c3)o2)c1 [Example 141, N-[5-(ethylsulfonyl)-2-methoxyphenyl]-5-(3-fluorophenyl)-1,3-oxazol-2-amine] as the compound, how does the IC50 read?
Answer: < 0.5 µM

Question: CCS(=O)(=O)c1ccc(OC)c(Nc2ncc(-c3cccc(OC4CCOC4)c3)o2)c1 (stereo not drawn) [Example 167, N-[5-(ethylsulfonyl)-2-methoxyphenyl]-5-[3-(tetrahydrofuran-3-yloxy)phenyl]-1,3-oxazol-2-amine] was tested. Which IC50 did it give?
Answer: < 1 µM

Question: CCCCNS(=O)(=O)c1ccc(OC)c(Nc2ncc(-c3cccc(-c4ccccc4)c3)o2)c1 [Example 227, 3-{[5-(1,1′-biphenyl-3-yl)-1,3-oxazol-2-yl]amino}-N-butyl-4-methoxybenzenesulfonamide] was tested. Which IC50 did it give?
Answer: < 1 µM

Question: Which IC50 does the source give for COc1ccc(S(=O)(=O)C(C)C)cc1Nc1ncc(-c2ccc(F)cc2)o1 [Example 97, 5-(4-fluorophenyl)-N-[5-(isopropylsulfonyl)-2-methoxyphenyl]-1,3-oxazol-2-amine] here?
Answer: < 0.5 µM

Question: CCS(=O)(=O)c1ccc(OC)c(Nc2ncc(-c3cccc(OC(C)c4ccncc4)c3)o2)c1 (stereo not drawn) [Example 166, N-[5-(ethylsulfonyl)-2-methoxyphenyl]-5-[3-(1-pyridin-4-ylethoxy)phenyl]-1,3-oxazol-2-amine] was tested. Which IC50 did it give?
Answer: < 1 µM

Question: COc1ccc(S(=O)(=O)CC2CCCO2)cc1Nc1ncc(-c2ccc(F)cc2)o1 (stereo not drawn) [Example 94, 5-(4-fluorophenyl)-N-{2-methoxy-5-[(tetrahydrofuran-2-ylmethyl)sulfonyl]phenyl}-1,3-oxazol-2-amine] was tested. Which IC50 did it give?
Answer: < 1 µM

Question: COc1ccc(S(=O)(=O)NCC2CCCO2)cc1Nc1ncc(-c2cccc(-c3ccccc3)c2)o1 (stereo not drawn) [Example 229, 3-{[5-(1,1′-biphenyl-3-yl)-1,3-oxazol-2-yl]amino}-4-methoxy-N-(tetrahydrofuran-2-ylmethyl)benzenesulfonamide] was tested. Which IC50 did it give?
Answer: < 1 µM

Question: How did the IC50 turn out when CNS(=O)(=O)Cc1ccc(Nc2ncc(-c3ccccc3)o2)cc1 [Example 51, N-methyl-1-{4-[(5-phenyl-1,3-oxazol-2-yl)amino]phenyl}methanesulfonamide] was run?
Answer: < 1 µM

Question: How did the IC50 turn out when CNS(=O)(=O)c1ccc(OC)c(Nc2ncc(-c3cccc(-c4ccc(F)cc4)c3)o2)c1 [Example 189, 3-{[5-(4′-fluoro-1,1′-biphenyl-3-yl)-1,3-oxazol-2-yl]amino}-4-methoxy-N-methylbenzenesulfonamide] was run?
Answer: < 0.5 µM

Question: COc1ccc(S(=O)(=O)NCC2CC2)cc1Nc1ncc(-c2cccc(-c3ccccn3)c2)o1 [Example 221, N-(cyclopropylmethyl)-4-methoxy-3-{[5-(3-pyridin-2-ylphenyl)-1,3-oxazol-2-yl]amino}benzenesulfonamide] was tested. Which IC50 did it give?
Answer: < 1 µM

Question: For CCS(=O)(=O)c1ccc(OC)c(Nc2ncc(-c3cccc(-c4ccsc4)c3)o2)c1 [Example 173, N-[5-(ethylsulfonyl)-2-methoxyphenyl]-5-(3-thien-3-ylphenyl)-1,3-oxazol-2-amine], which IC50 is on record?
Answer: < 0.5 µM

Question: How did the IC50 turn out when COc1ccc(CS(C)(=O)=O)cc1Nc1ncc(-c2ccc(F)cc2)o1 [Example 82, 5-(4-fluorophenyl)-N-{2-methoxy-5-[(methylsulfonyl)methyl]phenyl}-1,3-oxazol-2-amine] was run?
Answer: < 1 µM

Question: Which IC50 does the source give for CCS(=O)(=O)c1ccc(OC)c(Nc2ncc(-c3cccc(-c4cccnc4)c3)o2)c1 [Example 174, N-[5-(ethylsulfonyl)-2-methoxyphenyl]-5-(3-pyridin-3-ylphenyl)-1,3-oxazol-2-amine] here?
Answer: < 1 µM

Question: Which IC50 does the source give for CCS(=O)(=O)c1ccc(OC)c(Nc2ncc(-c3ccc(Cl)cc3)o2)c1 [Example 132, 5-(4-chlorophenyl)-N-[5-(ethylsulfonyl)-2-methoxyphenyl]-1,3-oxazol-2-amine] here?
Answer: < 1 µM

Question: For CCS(=O)(=O)c1ccc(OC)c(Nc2ncc(-c3cccc(-c4ccccn4)c3)o2)c1 [Example 178, N-[5-(ethylsulfonyl)-2-methoxyphenyl]-5-(3-pyridin-2-ylphenyl)-1,3-oxazol-2-amine], which IC50 is on record?
Answer: < 0.5 µM

Question: Which IC50 does the source give for COc1ccc(S(=O)(=O)NC(C)C)cc1Nc1ncc(-c2ccc(F)cc2)o1 [Example 123, 3-{[5-(4-fluorophenyl)-1,3-oxazol-2-yl]amino}-N-isopropyl-4-methoxybenzenesulfonamide] here?
Answer: < 1 µM

Question: How did the IC50 turn out when COc1ccc(S(=O)(=O)N(C)C)cc1Nc1ncc(-c2ccc(F)cc2)o1 [Example 70, 3-{[5-(4-fluorophenyl)-1,3-oxazol-2-yl]amino}-4-methoxy-N,N-dimethylbenzenesulfonamide] was run?
Answer: < 0.5 µM

Question: Which IC50 does the source give for CCS(=O)(=O)c1ccc(OC)c(Nc2ncc(-c3cccc(-c4ccco4)c3)o2)c1 [Example 181, N-[5-(ethylsulfonyl)-2-methoxyphenyl]-5-[3-(2-furyl)phenyl]-1,3-oxazol-2-amine] here?
Answer: < 0.5 µM

Question: How did the IC50 turn out when CCS(=O)(=O)c1ccc(OC)c(Nc2ncc(-c3cccc(-c4ccccc4)c3)o2)c1 [Example 180, 5-(1,1′-biphenyl-3-yl)-N-[5-(ethylsulfonyl)-2-methoxyphenyl]-1,3-oxazol-2-amine] was run?
Answer: < 0.5 µM

Question: Which IC50 does the source give for CCS(=O)(=O)c1ccc(OC)c(Nc2ncc(-c3cccc(-c4cccs4)c3)o2)c1 [Example 172, N-[5-(ethylsulfonyl)-2-methoxyphenyl]-5-(3-thien-2-ylphenyl)-1,3-oxazol-2-amine] here?
Answer: < 0.5 µM

Question: Which IC50 does the source give for CCS(=O)(=O)c1ccc(OC)c(Nc2ncc(-c3ccc4c(c3)OCCO4)o2)c1 [Example 148, 5-(Z,3-dihydro-1,4-benzodioxin-6-yl)-N-[5-(ethylsulfonyl)-2-methoxyphenyl]-1,3-oxazol-2-amine] here?
Answer: < 1 µM

Question: Which IC50 does the source give for CCS(=O)(=O)c1ccc(OC)c(Nc2ncc(-c3cccc(Br)c3)o2)c1 [Example 100, 5-(3-bromophenyl)-N-[5-(ethylsulfonyl)-2-methoxyphenyl]-1,3-oxazol-2-amine] here?
Answer: < 1 µM

Question: With COc1ccc(S(=O)(=O)C(C)C)cc1Nc1ncc(-c2cccc(-c3ccccn3)c2)o1 [Example 193, N-[5-(isopropylsulfonyl)-2-methoxyphenyl]-5-(3-pyridin-2-ylphenyl)-1,3-oxazol-2-amine] as the compound, how does the IC50 read?
Answer: < 1 µM

Question: With COc1ccc(S(N)(=O)=O)cc1Nc1ncc(-c2cccc(-c3ccccc3)c2)o1 [Example 187, 3-{[5-(1,1′-biphenyl-3-yl)-1,3-oxazol-2-yl]amino}-4-methoxybenzenesulfonamide] as the compound, how does the IC50 read?
Answer: < 0.5 µM

Question: Which IC50 does the source give for CCS(=O)(=O)c1ccc(OC)c(Nc2ncc(-c3ccccc3)o2)c1 [Example 56, N-[5-(ethylsulfonyl)-2-methoxyphenyl]-5-phenyl-1,3-oxazol-2-amine] here?
Answer: < 0.5 µM

Question: How did the IC50 turn out when CCS(=O)(=O)c1ccc(OC)c(Nc2ncc(-c3ccc4c(c3)OCCCO4)o2)c1 [Example 153, 5-(3,4-dihydro-2H-1,5-benzodioxepin-7-yl)-N-[5-(ethylsulfonyl)-2-methoxyphenyl]-1,3-oxazol-2-amine] was run?
Answer: < 1 µM

Question: Which IC50 does the source give for CCS(=O)(=O)c1ccc(OC)c(Nc2ncc(-c3ccc(F)c(F)c3)o2)c1 [Example 110, 5-(3,4-difluorophenyl)-N-[5-(ethylsulfonyl)-2-methoxyphenyl]-1,3-oxazol-2-amine] here?
Answer: < 1 µM

Question: For COc1cc(Nc2ncc(-c3ccc(F)cc3)o2)cc(OC)c1OC [Example 116, 5-(4-fluorophenyl)-N-(3,4,5-trimethoxyphenyl)-1,3-oxazol-2-amine], which IC50 is on record?
Answer: < 1 µM

Question: CCS(=O)(=O)c1ccc(OC)c(Nc2ncc(-c3cccc(-c4ccc5c(c4)CCO5)c3)o2)c1 [Example 184, 5-[3-(2,3-dihydro-1-benzofuran-5-yl)phenyl]-N-[5-(ethylsulfonyl)-2-methoxyphenyl]-1,3-oxazol-2-amine] was tested. Which IC50 did it give?
Answer: < 0.5 µM

Question: How did the IC50 turn out when CCC(CC)S(=O)(=O)c1ccc(OC)c(Nc2ncc(-c3cccc(-c4ccccn4)c3)o2)c1 [Example 192, N-{5-[(1-ethylpropyl)sulfonyl]-2-methoxyphenyl}-5-(3-pyridin-2-ylphenyl)-1,3-oxazol-2-amine] was run?
Answer: < 1 µM

Question: Which IC50 does the source give for CCN(CC)S(=O)(=O)c1ccc(OC)c(Nc2ncc(-c3cccc(-c4ccccc4)c3)o2)c1 [Example 228, 3-{[5-(1,1′-biphenyl-3-yl)-1,3-oxazol-2-yl]amino}-N,N-diethyl-4-methoxybenzenesulfonamide] here?
Answer: < 0.5 µM

Question: How did the IC50 turn out when CCS(=O)(=O)c1ccc(OC)c(Nc2ncc(-c3cccc(-c4ccccc4F)c3)o2)c1 [Example 215, N-[5-(ethylsulfonyl)-2-methoxyphenyl]-5-(2′-fluoro-1,1′-biphenyl-3-yl)-1,3-oxazol-2-amine] was run?
Answer: < 0.5 µM

Question: How did the IC50 turn out when COc1ccc(S(=O)(=O)NCc2ccncc2)cc1Nc1ncc(-c2ccc(F)cc2)o1 [Example 122, 3-{[5-(4-fluorophenyl)-1,3-oxazol-2-yl]amino}-4-methoxy-N-(pyridin-4-ylmethyl)benzenesulfonamide] was run?
Answer: < 1 µM

Question: How did the IC50 turn out when CCC(CC)S(=O)(=O)c1ccc(OC)c(Nc2ncc(-c3ccc(F)cc3)o2)c1 [Example 90, N-{5-[(1-ethylpropyl)sulfonyl]-2-methoxyphenyl}-5-(4-fluorophenyl)-1,3-oxazol-2-amine] was run?
Answer: < 1 µM

Question: How did the IC50 turn out when CCS(=O)(=O)c1ccc(OC)c(Nc2ncc(-c3ccc(C#N)cc3)o2)c1 [Example 133, 4-(2-{[5-(ethylsulfonyl)-2-methoxyphenyl]amino}-1,3-oxazol-5-yl)benzonitrile] was run?
Answer: < 0.5 µM
